Results: US20240190889A1, “NEW CYCLOPENTA-THIENO-DIAZEPINE DERIVATIVES AS GABA A GAMMA1 POSITIVE ALLOSTERIC MODULATORS” (Hoffmann-La Roche Inc., priority 2021, published 2024)
Read-outs that look alike come from different tables or passages of the source.

Assays:
[1] = target: human GABAA α2β2γ1 receptor (Homo sapiens (Human), UniProt P47869+Q8N1C3); experiment: Radioligand binding assay, competition for [3H]RO7239181, γ1-containing GABAA subtypes
Procedure: (§1) Membrane Preparation and Binding Assay for γ1-containing GABAA Subtypes
(§2) The affinity of compounds at GABAA γ1 subunit-containing receptors was measured by competition for [^3H]RO7239181 (67.3 Ci/mmol: Roche) binding to membranes from HEK293F cells (ThermoFisher R79007) expressing human (transiently transfected) receptors of composition α5β2γ1, α2β2γ1, α1β2γ1.
(§3) Harvested pellets from HEK293F cells expressing the different GABAA receptor subtypes were resuspended in Mannitol Buffer pH 7.2-7.4 (Mannitol 0.29 M, Tricthylamine 10 mM. Acetic acid 10 mM. EDTA 1 mM plus protease inhibitors (20 tablets Complete. Roche Diagnostics Cat. No. 05 056 489 001 per liter)), washed two times and then resuspended at 1:10 to 1:15 dilution in the same buffer. Cell disruption was performed by stirring the suspension in a Parr vessel #4637 at 435 psi for 15 minutes, and then the suspensions were centrifuged at 1000×g for 15 minutes at 4° C. (Beckman Avanti J-HC: rotor JS-4.2). The supernatant (S1) was transferred in a 21 Schott flask and the pellet (P1) was resuspended with Mannitol Buffer up to 175 ml. The resuspended pellet was transferred into a 250 ml Corning centrifugal beaker and centrifuged at 1500 ×g for 10 minutes at 4° C. (Beckman Avanti J-HC: rotor JS-4.2). The supernatant (S1) was then transferred in the 21 Schott flask and the pellet was discarded. The supernatants (S1) were centrifuged in 500ml Beckman polypropylene centrifugal beaker at 15 000×g for 30 minutes at 4° C. (Beckman Avanti J-20 XP; rotor JLA-10.500). The pellet (P2) was resuspended with Mannitol Buffer 1:1 and frozen at −80° C. The supernatant (S2) was centrifuged in 100 ml Beckman polypropylene centrifugal tubes at 48000×g for 50 minutes at 4 °C (Beckman Avanti J-20 XP: rotor JA-18). The supernatant (S3) was discarded and the pellet (P3) was resuspended with 1:1 Mannitol Buffer. The P2 and P3 protein concentration was determined with the BIORAD Standard assay method with bovine serum albumin as standard and measured on the NANO-Drop 1000. The membrane suspension was aliquots (500μl per tube) and stored at −80° C. until required.
(§4) Membrane homogenates were resuspended and polytronised (Polytron PT1200E Kinematica AG) in Potassium Phosphate 10 mM, KCl 100 mM binding buffer at pH 7.4 to a final assay concentration determined with a previous experiment.
Radioligand binding assays were carried out in a volume of 200 μL (96-well plates) which contained 100 μL of cell membranes. […] Assays were incubated to equilibrium for 1 hour at 4° C. and then, membranes were filtered onto unifilter (96-well white microplate with bonded GF/C filters preincubated 20-50 minutes in 0.3% Polyethylenimine) with a Filtermate 196 harvester (Packard BioScience) and washed 4 times with cold Potassium Phosphate 10 mM pH 7.4. KCl 100 mM binding buffer. After anhydrousing, filter-retained radioactivity was detected by liquid scintillation counting. Ki values were calculated using Excel-Fit (Microsoft) and are the means of two determinations.

[2] = target: human GABAA α5β2γ1 receptor (Homo sapiens (Human), UniProt P31644+Q8N1C3); experiment: as above; details: membranes from HEK293F cells, mean of two determinations
Procedure: as §1
as §2, with “α1β2γ1. For better protein expression of the α2 subunit-containing receptors, the 28 amino acid long signal peptide (Metl to Ala28) of the human GABAA α2 subunit was substituted by the 31 amino acid long signal peptide (Met1 to Ser31) of human GABAA α5 subunit.” for “α1β2γ1.”
as §3, §4
Radioligand binding assays were carried out in a volume of 200 μL (96-well plates) which contained 100 μL of cell membranes. [^3H]RO7239181 at a concentration of 1.5 nM (α5β2γ1) or 20-30 nM (α1β2γ1, α2β2γ1) and the test compound in the range of [0.3-10000]33 10^−9 M. Nonspecific binding was defined by […] (α5β2γ1) and […] RO7239181 and typically represented less than 5% (α5β2γ1) and less than 20% (α1β2γ1, α2β2γ1) of the total binding. Assays were incubated to equilibrium for 1 hour at 4° C. and then, membranes were filtered onto unifilter (96-well white microplate with bonded GF/C filters preincubated 20-50 minutes in 0.3% Polyethylenimine) with a Filtermate 196 harvester (Packard BioScience) and washed 4 times with cold Potassium Phosphate 10 mM pH 7.4. KCl 100 mM binding buffer. After anhydrousing, filter-retained radioactivity was detected by liquid scintillation counting. Ki values were calculated using Excel-Fit (Microsoft) and are the means of two determinations.
Representative test results, obtained by the above described assay measuring binding affinity to HEK293 cells expressing human (h) receptors, are shown in the Table 1.

[3] = target: human GABAA α1β3γ2 receptor (Homo sapiens (Human), UniProt P14867+P18507); experiment: Radioligand binding assay, competition for [3H]Flumazenil, γ2-containing GABAA subtypes; details: for γ2/γ1 Selectivity Ratio: Ki α1β3γ2 (nM)/Ki α2β2γ1 (nM); for LogSel: Log[Ki α1β3γ2 (nM)/Ki α2β2γ1 (nM)]
Procedure: Membrane Preparation and Binding Assay for γ2-containing GABAA Subtypes
The affinity of compounds at GABAA γ2 subunit-containing receptors was measured by competition for [^3H]Flumazenil (81.1 Ci/mmol; Roche) binding to HEK293F cells expressing human (transiently transfected) receptors of composition α1β3γ2.
Harvested pellets from HEK293F cells expressing the different GABAA γ2 receptor subtypes were resuspended in Mannitol Buffer pH 7,2-7,4 and processed as described above for the cells expressing the GABAA γ1 subunit-containing receptors.
Assays were incubated to equilibrium for 1 hour at 4° C, and harvested onto GF/C uni-filters (Packard) by filtration using a Packard harvester and washing with ice-cold wash buffer (50 mM Tris; pH 7.5). After anhydrousing, filter-retained radioactivity was detected by liquid scintillation counting. Ki values were calculated using Excel-Fit (Microsoft) and are the means of two determinations.

[4] = read-out: Ki h-GABAA α2β2γ1, membranes from HEK293F cells, [3H]RO7239181 20-30 nM, mean of two determinations
[5] = HEK293F cell membranes, [3H]Flumazenil 1 nM, mean of two determinations, read-out: Ki h-GABAA α1β3γ2

Structure (SMILES) | Ki [1] | Ki [1, 4] | Ki [2] | Ki [3] | γ2/γ1 Selectivity Ratio [3] | LogSel [3] | Ki [3, 5]
C[C@@H]1N=C(c2c(F)cccc2Cl)c2c(sc3c2C[C@@H](C(F)F)C3)-n2c(-c3cccnn3)nnc21 [Example 12, (7S,13R)-9-(2-chloro-6-fluoro-phenyl)-13-(difluoromethyl)-7-methyl-3-pyridazin-3-yl-16-thia-2,4,5,8-tetrazatetracyclo [8.6.0.02,6.011,15]hexadeca-1(10),3,5,8,11(15)-pentaene] | 13.4 nM | 13.4 nM | 3.7 nM | 2360 nM | 176.0 | 2.25 | –
Cc1nnc2n1-c1sc3c(c1C(c1c(F)cccc1F)=N[C@H]2C)C[C@@H](C(F)(F)F)C3 [Example 13, (7S,13R)-9-(2,6-difluorophenyl)-3,7-dimethyl-13-(trifluoromethyl)-16-thia-2,4,5,8-tetrazatetracyclo [8.6.0.02,6.011,15]hexadeca-1(10),3,5,8,11(15)-pentaene] | 16.2 nM | 16.2 nM | 5.9 nM | 705 nM | 43.5 | 1.64 | –
Cc1nnc2n1-c1sc3c(c1C(c1c(F)cccc1F)=NC2)C[C@@H](C)C3 [Example 14, (13R)-9-(2,6-difluorophenyl)-3,13-dimethyl-16-thia-2,4,5,8-tetrazatetracyclo [8.6.0.02,6.011,15]hexadeca-1(10),3,5,8,11(15)-pentaene] | 2.8 nM | 2.8 nM | 1.6 nM | 101 nM | 36.2 | 1.56 | –
Cc1nnc2n1-c1sc3c(c1C(c1c(F)cccc1F)=N[C@H]2C)C[C@@H](C)C3 [Example 15, (7S,13R)-9-(2,6-difluorophenyl)-3,7,13-trimethyl-16-thia-2,4,5,8-tetrazatetracyclo [8.6.0.02,6.011,15]hexadeca-1(10),3,5,8,11(15)-pentaene] | 6.3 nM | 6.3 nM | 1.4 nM | 101 nM | 16.1 | 1.21 | –
Cc1nc2n(n1)-c1sc3c(c1C(c1c(F)cccc1F)=N[C@H]2C)C[C@@H](C(F)F)C3 [Example 16, (7S,13R)-13-(difluoromethyl)-9-(2,6-difluorophenyl)-4,7-dimethyl-16-thia-2,3,5,8-tetrazatetracyclo [8.6.0.02,6.011,15]hexadeca-1(10),3,5,8,11(15)-pentaene] | 2.3 nM | 2.3 nM | 1 nM | 448 nM | 191.1 | 2.28 | –
Cc1nc2n(n1)-c1sc3c(c1C(c1c(F)cccc1F)=N[C@H]2C)C[C@H](C(F)F)C3 [Example 17, (7S,13S)-13-(difluoromethyl)-9-(2,6-difluorophenyl)-4,7-dimethyl-16-thia-2,3,5,8-tetrazatetracyclo [8.6.0.02,6.011,15]hexadeca-1(10),3,5,8,11(15)-pentaene] | 57.9 nM | 57.9 nM | 31.6 nM | 6640 nM | 114.8 | 2.06 | –
C[C@@H]1N=C(c2c(F)cccc2F)c2c(sc3c2C[C@@H](C(F)F)C3)-n2nc(C(=O)NCCO)nc21 [Example 18, (7S,13R)-13-(difluoromethyl)-9-(2,6-difluorophenyl)-N-(2-hydroxyethyl)-7-methyl-16-thia-2,3,5,8-tetrazatetracyclo [8.6.0.02,6.011,15]hexadeca-1(10),3,5,8,11(15)-pentaene-4-carboxamide] | 5.7 nM | 5.7 nM | 2.5 nM | – | 107.2 | 2.03 | 614 nM
C[C@@H]1N=C(c2c(F)cccc2F)c2c(sc3c2C[C@@H](C(F)F)C3)-n2nc(C(=O)N3CCS(=O)(=O)CC3)nc21 [Example 19, [(7S,13R)-13-(difluoromethyl)-9-(2,6-difluorophenyl)-7-methyl-16-thia-2,3,5,8-tetrazatetracyclo [8.6.0.02,6.011,15]hexadeca-1(10),3,5,8,11(15)-pentaen-4-yl]-(1,1-dioxo-1,4-thiazinan-4-yl)methanone] | 5.4 nM | 5.4 nM | 4.6 nM | – | 162.3 | 2.21 | 873 nM
Cc1cnc2n1-c1sc3c(c1C(c1c(F)cccc1F)=N[C@H]2C)C[C@@H](C(F)F)C3 [Example 20, (7S,13R)-13-(difluoromethyl)-9-(2,6-difluorophenyl)-3,7-dimethyl-16-thia-2,5,8-triazatetracyclo [8.6.0.02,6.011,15]hexadeca-1(10),3,5,8,11(15)-pentaene] | 2.24 nM | 2.24 nM | 3.6 nM | 191 nM | 53.4 | 1.73 | –
C[C@@H]1N=C(c2c(F)cccc2F)c2c(sc3c2C[C@@H](C(F)F)C3)-n2c(CO)cnc21 [Example 21, [(7S,13R)-13-(difluoromethyl)-9-(2,6-difluorophenyl)-7-methyl-16-thia-2,5,8-triazatetracyclo [8.6.0.02,6.011,15]hexadeca-1(10),3,5,8,11(15)-pentaen-3-yl]methanol] | 2.97 nM | 2.97 nM | 4.7 nM | 606 nM | 127.6 | 2.11 | –
